Assay results as given in patent publication US6358885B1, “Substituted phenylheterocyclic herbicides” (Mississippi State University, priority 1992, dated 2002).

Tests used:
Assay in all cases: Test F preemergence/postemergence greenhouse plant response rating 0 to 100
wild mustard = format: in vivo, Sinapis arvensis; details: POSTEMERGENCE, 0 to 100 scale
Excerpt: (§1) Compounds evaluated in this test were formulated in a non-phytoxic solvent and applied to the soil surface before plant seedlings emerged (preemergence application) and to plants that were in the one-to-four leaf stage (postemergence application). A sandy loam soil was used for the preemergence test while a mixture of sandy loam soil and greenhouse potting mix in a 60:40 ratio was used for the postemergence test. Test compounds were applied within approximately one day after planting seeds for the preemergence test. Plantings of these crops and weed species were adjusted to produce plants of appropriate size for the postemergence test. All plant species were grown using normal greenhouse practices. Crop and weed species include winter barley (Hordeum vulgare cv. ‘Igri’), blackgrass (Alopecurus myosuroides), chickweed (Stellaria media), downy brome (Bromus tectorum), field violet (Viola arvensis), galium (Galium aparine), green foxtail (Setaria viridis), kochia (Kochia scoparia), lambsquarters (Chenopodium album), speedwell (Veronica persica), rape (Brassica napus), ryegrass (Lolium multiflorum), sugar beet (Beta vulgaris cv. ‘USl’), sunflower (Helianthus annuus cv. ‘Russian Giant’), spring wheat (Triticum aestivum cv. ‘ERA’), winter wheat (Triticum aestivum cv. ‘Talent’), wild buckwheat (Polygonum convolvulus), wild mustard (Sinapis arvensis), wild oat (Avena fatua), and wild radish (Raphanus raphanistrum). Blackgrass, galium and wild oat were treated at two growth stages. […] Treated plants and untreated controls were maintained in a greenhouse for approximately 21 to 28 days, after which all treated plants were compared to untreated controls and visually evaluated. […] A dash response (-) means no test result.

blackgrass = format: in vivo, Alopecurus myosuroides; details: POSTEMERGENCE, 0 to 100 scale; for Blackgrass (1) plant response rating: stage (1) two to three leaves; for Blackgrass (2) plant response rating: stage (2) approximately four leaves or initial tillering
Excerpt: as §1

kochia = format: in vivo, Kochia scoparia; details: POSTEMERGENCE, 0 to 100 scale
Excerpt: as §1

sugar beet = format: in vivo, Beta vulgaris cv. ‘USl’; details: POSTEMERGENCE, 0 to 100 scale
Excerpt: as §1

sunflower = format: in vivo, Helianthus annuus cv. ‘Russian Giant’; details: POSTEMERGENCE, 0 to 100 scale
Excerpt: as §1

wild radish = format: in vivo, Raphanus raphanistrum; details: POSTEMERGENCE, 0 to 100 scale
Excerpt: as §1

CCOC(=O)COc1cc(-c2nn3c(c2Cl)CCCC3)c(F)cc1Cl [Compound 42]
Wild mustard plant response rating (wild mustard; Rate 2 g/ha): 40 | Wild mustard plant response rating (wild mustard; Rate 4 g/ha): 100 | Wild mustard plant response rating (wild mustard; Rate 16 g/ha): 100 | Wild mustard plant response rating (wild mustard; Rate 32 g/ha): 100 | Blackgrass (1) plant response rating (blackgrass; Rate 2 g/ha): 0 | Blackgrass (2) plant response rating (blackgrass; Rate 2 g/ha): 0 | Blackgrass (1) plant response rating (blackgrass; Rate 4 g/ha): 0 | Blackgrass (2) plant response rating (blackgrass; Rate 4 g/ha): 0 | Blackgrass (1) plant response rating (blackgrass; Rate 8 g/ha): 0 | Blackgrass (2) plant response rating (blackgrass; Rate 8 g/ha): 0 | Blackgrass (1) plant response rating (blackgrass; Rate 16 g/ha): 0 | Blackgrass (2) plant response rating (blackgrass; Rate 16 g/ha): 0 | Blackgrass (1) plant response rating (blackgrass; Rate 32 g/ha): 0 | Blackgrass (2) plant response rating (blackgrass; Rate 32 g/ha): 0 | Kochia plant response rating (kochia; Rate 2 g/ha): 75 | Kochia plant response rating (kochia; Rate 4 g/ha): 80 | Kochia plant response rating (kochia; Rate 8 g/ha): 80 | Kochia plant response rating (kochia; Rate 16 g/ha): 100 | Kochia plant response rating (kochia; Rate 32 g/ha): 100 | Sugar beet plant response rating (sugar beet; Rate 2 g/ha): 100 | Sugar beet plant response rating (sugar beet; Rate 8 g/ha): 100 | Sugar beet plant response rating (sugar beet; Rate 16 g/ha): 100 | Sugar beet plant response rating (sugar beet; Rate 32 g/ha): 100 | Sunflower plant response rating (sunflower; Rate 2 g/ha): 0 | Sunflower plant response rating (sunflower; Rate 4 g/ha): 20 | Sunflower plant response rating (sunflower; Rate 8 g/ha): 30 | Sunflower plant response rating (sunflower; Rate 16 g/ha): 60 | Sunflower plant response rating (sunflower; Rate 32 g/ha): 100 | Wild radish plant response rating (wild radish; Rate 2 g/ha): 0 | Wild radish plant response rating (wild radish; Rate 4 g/ha): 0 | Wild radish plant response rating (wild radish; Rate 8 g/ha): 10 | Wild radish plant response rating (wild radish; Rate 16 g/ha): 20 | Wild radish plant response rating (wild radish; Rate 32 g/ha): 20
